Data from publication PMC12016938, “A small molecule PKCε inhibitor reduces hyperalgesia induced by paclitaxel or opioid withdrawal” (JCI Insight, 2025).
Values joined by “and” are separate entries in the source; they are usually repeats but may differ in a detail not shown here. Equal values may be shown once.

Tested on: self-administration (addictive potential)
Test: I.v. self-administration of CP612, between-session progressive ratio and demand curve
Experimental: We tested the addictive potential of CP612 by examining the extent to which rats are willing to work to obtain CP612. Rats were initially trained to self-administer either saline, morphine (500 μg/kg/i.v. infusion), or 1 of 3 different doses of CP612 (75, 150, or 300 μg/kg/i.v. infusion) for 4 days at fixed ratio 1 (FR1, where 1 nose poke delivers 1 infusion).
During the second phase, the ratio to obtain an infusion increased geometrically every other day (FR1, FR3, FR6, FR12, FR24, FR48, and FR96).
Data (number of self-infusions) were also fitted in an economic-demand curve, which provides an estimate of the motivation to obtain drugs and their addictive potential ([20]). We measured elasticity (α), which is the relative change in consumption as a function of price (i.e., ratio of nose pokes required to obtain an infusion). Behavior is considered “inelastic” when consumption is insensitive to price and “elastic” when consumption is sensitive to price. We also measured Pmax, which is the price at which intake switches from inelastic to elastic. […] (Figure 8B).
Rats not immediately anesthetized were eliminated from the study.
Following this initial acquisition phase at FR1, the ratio to obtain the drug was increased geometrically every other day: FR3 (3 nose pokes are required to obtain 1 infusion of morphine), FR6, FR12, FR24, FR48, and FR96. This allows for analysis of drug consumption as a function of “price” using demand curves for behavioral economics, which can estimate the motivation to obtain drugs and their “addictive potential” ([20]). For this, data from each rat were fitted to the equation log Q = log Q0 + k (e ^–α(Q0 ^C) – 1), where Q represents consumption (number of self-infusions), and Q0 represents the level of consumption at the lowest price. C represents price for the drug (i.e., the ratio), and k is set to a constant accounting for the estimated range of consumption in logarithmic units (k = 4 in these studies). The symbol α is the relative change in consumption across changes in price (ratio). Behavior is considered “inelastic” when consumption is insensitive to price (i.e., the curve is flat, and consumption is maintained despite increases in price), and it switches to “elastic” when consumption is sensitive to price (i.e., when the curve is steep and consumption declines with increases in price). […] We also compared groups for their average intake in the consumption-price curves by measuring α (elasticity) and Pmax.

Compound: N[C@H](CNC(=O)C1(c2ccc(Cl)cc2)CCCC1)c1ccc(C(=O)Nc2ccncc2)cc1 [CP612]
- AVG Latency (FR12) (CP612-Mid, individual rat): 0.5 and 1.1 and 1.0 and 3.5 and 4.2
- AVG Latency (FR24) (CP612-Mid, individual rat): 0.3 and 1.4 and 1.0 and 1.5
- AVG Latency (FR48) (CP612-Mid, individual rat): 0.112 and 1.3 and 0.7 and 0.539 and 2.5
- AVG Latency (FR96) (CP612-Mid, individual rat): 2.0 and 0.8 and 0.6 and 2.4
- D1 Latency (FR1) (CP612-Mid, individual rat): 3.8 and 0.15 and 0.8 and 0.215
- D1 Latency (FR3) (CP612-Mid, individual rat): 0.137 and 0.557 and 0.083 and 0.1 and 1.4
- D1 Latency (FR6) (CP612-Mid, individual rat): 0.9 and 1.2 and 1.4 and 3.2 and 4.8
- D1 Latency (FR12) (CP612-Mid, individual rat): 0.255 and 1.6 and 1.7 and 5.8
- D1 Latency (FR24) (CP612-Mid, individual rat): 0.108 and 2.3 and 0.4 and 0.282 and 2.0
- D1 Latency (FR48) (CP612-Mid, individual rat): 0.123 and 1.4 and 0.337 and 0.447 and 2.9
- D1 Latency (FR96) (CP612-Mid, individual rat): 2.4 and 0.76 and 0.8 and 2.5 and 0.4
- D2 Latency (FR1) (CP612-Mid, individual rat): 0.5 and 0.215 and 0.6 and 0.237 and 2.1
- D2 Latency (FR3) (CP612-Mid, individual rat): 1.4 and 0.375 and 2.2 and 0.065 and 0.125
- D2 Latency (FR6) (CP612-Mid, individual rat): 0.335 and 0.737 and 0.17 and 2.8 and 5.1
- D2 Latency (FR12) (CP612-Mid, individual rat): 0.7 and 0.6 and 0.4 and 5.2 and 2.6
- D2 Latency (FR24) (CP612-Mid, individual rat): 0.5 and 0.432 and 0.168 and 1.7 and 1.0
- D2 Latency (FR48) (CP612-Mid, individual rat): 0.1 and 1.2 and 1.0 and 0.632 and 2.0
- D2 Latency (FR96) (CP612-Mid, individual rat): 1.7 and 0.8 and 0.435 and 2.3
- D3 Latency (FR1) (CP612-Mid, individual rat): 0.237 and 0.127 and 0.132 and 0.128 and 0.347
- D4 Latency (FR1) (CP612-Mid, individual rat): 0.8 and 1.4 and 0.4 and 3.8
- last Latency (FR1) (CP612-Mid, individual rat): 0.158 and 0.458 and 0.11 and 0.378 and 3.0
- last-1 Latency (FR1) (CP612-Mid, individual rat): 0.8 and 1.4 and 0.4 and 3.8
- last-2 Latency (FR1) (CP612-Mid, individual rat): 0.237 and 0.127 and 0.132 and 0.128 and 0.347
- last-3 Latency (FR1) (CP612-Mid, individual rat): 0.237 and 0.215 and 0.6 and 0.128 and 0.347
- AVG Latency (FR1_D1 to D4) (CP612-Mid, individual rats): 1.8 and 5.8 and 0.9
- AVG Latency (FR1_Last 2 FR1 days) (CP612-Mid, individual rats): 0.456 and 1.8 and 0.373
- AVG Latency (FR1_Last 4 FR1 days) (CP612-Mid, individual rats): 0.455 and 2.3 and 0.265
- AVG Latency (FR3) (CP612-Mid, individual rats): 0.7 and 0.9 and 0.6
- AVG Latency (FR6) (CP612-Mid, individual rats): 1.0 and 2.4 and 0.144
- AVG Latency (FR12) (CP612-Mid, individual rats): 0.657 and 1.0 and 0.8
- AVG Latency (FR24) (CP612-Mid, individual rats): 0.8 and 0.757 and 0.6
- AVG Latency (FR48) (CP612-Mid, individual rats): 2.5 and 6.0 and 0.7
- AVG Latency (FR96) (CP612-Mid, individual rats): 1.0 and 1.3
- D1 Latency (FR1) (CP612-Mid, individual rats): 5.7 and 14.9 and 2.9
- D1 Latency (FR3) (CP612-Mid, individual rats): 1.0 and 0.8 and 0.465
- D1 Latency (FR6) (CP612-Mid, individual rats): 1.7 and 4.2 and 0.257
- D1 Latency (FR12) (CP612-Mid, individual rats): 0.9 and 1.9 and 1.1
- D1 Latency (FR24) (CP612-Mid, individual rats): 1.1 and 0.9 and 0.442
- D1 Latency (FR48) (CP612-Mid, individual rats): 1.5 and 0.8 and 1.2
- D1 Latency (FR96) (CP612-Mid, individual rats): 1.1 and 0.335 and 0.8
- D2 Latency (FR1) (CP612-Mid, individual rats): 0.7 and 3.0 and 0.022
- D2 Latency (FR3) (CP612-Mid, individual rats): 0.4 and 1.0 and 0.738
- D2 Latency (FR6) (CP612-Mid, individual rats): 0.427 and 0.638 and 0.03
- D2 Latency (FR12) (CP612-Mid, individual rats): 0.377 and 0.168 and 0.5
- D2 Latency (FR24) (CP612-Mid, individual rats): 0.5 and 0.6 and 0.753
- D2 Latency (FR48) (CP612-Mid, individual rats): 3.5 and 11.3 and 0.2
- D2 Latency (FR96) (CP612-Mid, individual rats): 0.8 and 2.3 and 1.1
- D3 Latency (FR1) (CP612-Mid, individual rats): 0.6 and 4.4 and 0.157
- D4 Latency (FR1) (CP612-Mid, individual rats): 0.3 and 1.0 and 0.57
- last Latency (FR1) (CP612-Mid, individual rats): 0.2 and 0.6 and 0.177
- last-1 Latency (FR1) (CP612-Mid, individual rats): 0.7 and 3.1 and 0.57
- last-2 Latency (FR1) (CP612-Mid, individual rats): 0.3 and 1.0 and 0.157
- last-3 Latency (FR1) (CP612-Mid, individual rats): 0.6 and 4.4 and 0.157
- AVG Inf (FR96) (rat, in vivo): 0.0
- Addictive potential (rat, in vivo): highly unlikely to be addictive
- D1 Inf (FR96) (rat, in vivo): 0
- D2 Inf (FR96) (rat, in vivo): 0
- AVG Inf (FR96) (rat, in vivo, 2 h): 0.0
- D1 Inf (FR96) (rat, in vivo, 2 h): 0
- D2 Inf (FR96) (rat, in vivo, 2 h): 0
- D1 Inf (FR48) (rat, in vivo, 1 day at FR48): 0
- D1 Inf (FR96) (rat, in vivo, 1 day at FR96): 0
- D2 Inf (FR48) (rat, in vivo, 2 day at FR48): 0
- D2 Inf (FR96) (rat, in vivo, 2 day at FR96): 0
